From the supplement of paper PMC10307832

Tests used:
Experiment in all cases: relative viability (nuclei count vs DMSO), 5 days (fraction); higher = more cells survive
Elesclomol + OSI-027 = compound: CN(NC(=O)CC(=O)NN(C)C(=S)c1ccccc1)C(=S)c1ccccc1 [Elesclomol] + COc1cccc2cc(-c3nc([C@H]4CC[C@H](C(=O)O)CC4)n4ncnc(N)c34)[nH]c12 [OSI-027] (partner 0.5 µM)
In short: (§1)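 Medians of duplicate plates are given as relative viability. That measure is the nuclei count in treated wells divided by the count in vehicle wells. Counts were taken on 4× images of lung cancer cell lines in 1536-well plates, 5 days after pin-tool dosing the day after seeding with one drug alone or a fixed anchor-drug dose plus five library-drug doses (not always all listed) in √10 steps.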

Elesclomol + Foretinib = compound: CN(NC(=O)CC(=O)NN(C)C(=S)c1ccccc1)C(=S)c1ccccc1 [Elesclomol] + COc1cc2c(Oc3ccc(NC(=O)C4(C(=O)Nc5ccc(F)cc5)CC4)cc3F)ccnc2cc1OCCCN1CCOCC1 [Foretinib] (partner 0.25 µM)
In short: as §1

Elesclomol + Alpelisib = compound: CN(NC(=O)CC(=O)NN(C)C(=S)c1ccccc1)C(=S)c1ccccc1 [Elesclomol] + Cc1nc(NC(=O)N2CCC[C@H]2C(N)=O)sc1-c1ccnc(C(C)(C)C(F)(F)F)c1 [Alpelisib] (partner 2 µM)
In short: as §1

Elesclomol + Phenformin = compound: CN(NC(=O)CC(=O)NN(C)C(=S)c1ccccc1)C(=S)c1ccccc1 [Elesclomol] + N=C(N)NC(=N)NCCc1ccccc1 [Phenformin] (partner 250 µM)
In short: as §1

Elesclomol + Crizotinib = compound: CN(NC(=O)CC(=O)NN(C)C(=S)c1ccccc1)C(=S)c1ccccc1 [Elesclomol] + C[C@@H](Oc1cc(-c2cnn(C3CCNCC3)c2)cnc1N)c1c(Cl)ccc(F)c1Cl [Crizotinib] (partner 1 µM)
In short: as §1

Cell Line	relative viability (Elesclomol + OSI-027; first compound 0.003162 µM)	relative viability (Elesclomol + OSI-027; first compound 0.01 µM)	relative viability (Elesclomol + OSI-027; first compound 0.03162 µM)	relative viability (Elesclomol + OSI-027; first compound 0.1 µM)	relative viability (Elesclomol + Foretinib; first compound 0.003162 µM)	relative viability (Elesclomol + Foretinib; first compound 0.01 µM)	relative viability (Elesclomol + Foretinib; first compound 0.03162 µM)	relative viability (Elesclomol + Foretinib; first compound 0.1 µM)	relative viability (Elesclomol + Alpelisib; first compound 0.003162 µM)	relative viability (Elesclomol + Alpelisib; first compound 0.01 µM)	relative viability (Elesclomol + Alpelisib; first compound 0.03162 µM)	relative viability (Elesclomol + Alpelisib; first compound 0.1 µM)	relative viability (Elesclomol + Phenformin; first compound 0.003162 µM)	relative viability (Elesclomol + Phenformin; first compound 0.01 µM)	relative viability (Elesclomol + Phenformin; first compound 0.03162 µM)	relative viability (Elesclomol + Phenformin; first compound 0.1 µM)	relative viability (Elesclomol + Crizotinib; first compound 0.003162 µM)	relative viability (Elesclomol + Crizotinib; first compound 0.01 µM)	relative viability (Elesclomol + Crizotinib; first compound 0.03162 µM)	relative viability (Elesclomol + Crizotinib; first compound 0.1 µM)
LK-2	0.232	0.224	0.179	0.116	0.89	0.969	0.719	0.177	0.843	0.254	0.137	0.107	0.438	0.389	0.353	0.141	0.224	0.213	0.124	0.106
LOU-NH91	0.786	0.701	0.595	0.714	0.902	0.868	0.862	0.807	0.717	0.643	0.513	0.498	0.754	0.571	0.419	0.439	0.735	0.706	0.616	0.57
LU99A	0.309	0.259	0.295	0.223	0.883	0.625	0.815	0.234	0.479		0.538	0.095	0.804	0.561	0.901	0.219	0.545		0.648	0.121
LXF-289	0.82	0.328	0.803	0.589	0.979	0.942	0.894	0.684	1.05	0.977	0.979	0.686	0.516	0.406	0.487	0.467	0.811	0.775	0.767	0.588
NCI-H23	0.66	0.298	0.601	0.312	0.971	1.03	0.746	0.247	0.662		0.491	0.122	0.822	0.671	0.77	0.506	0.56		0.49	0.116
NCI-H322M	0.565	0.328	0.268	0.116	0.837	0.656	0.356	0.26	0.933		0.645	0.173	0.769	0.32	0.47	0.0999	0.911		0.98	0.552
NCI-H358	0.276	0.116	0.0873	0.087	0.261	0.182	0.106	0.1	0.43	0.163	0.166	0.142	0.305	0.158	0.148	0.166	0.215	0.151	0.204	0.171
NCI-H441	0.563	0.37	0.327	0.103	1.07	0.924	0.513	0.127	0.701	0.624	0.233	0.0722	0.788	0.838	0.604	0.45	0.836	0.461	0.286	0.113
NCI-H460	0.619	0.276	0.101	0.0137	0.975	0.848	0.27	0.0259	0.434	0.0761	0.0128	0.0117	0.439	0.0498	0.0181	0.0123	0.624	0.0306	0.0112	0.0109
NCI-H520	0.23	0.293	0.224	0.14	0.757	0.771	0.251	0.111	0.884	0.667	0.563	0.0734	0.555	0.535	0.61	0.105	0.69	0.713	0.233	0.0848
NCI-H596	0.8	0.694	0.757	0.206	0.918	1.03	0.764	0.158	0.437	0.472	0.458	0.213	0.734	0.693	0.714	0.335	0.92	0.948	0.95	0.184
NCI-H647	0.603	0.368	0.161	0.203	1.05	0.973	0.359	0.0921	1.12	0.998	0.245	0.017	0.546	0.234	0.104	0.0401	1.1	0.813	0.39	0.0391
NCI-H650	0.555	0.382	0.229	0.254	1.07	0.509	0.329	0.243	1.09	0.342	0.271	0.237	0.468	0.345	0.315	0.361	0.666	0.264	0.254	0.256
NCI-H661	0.617	0.283	0.242	0.168	0.885	0.54	0.275	0.293	0.619	0.387	0.2	0.234	0.272	0.305	0.25	0.193	0.991	0.619	0.361	0.283
NCI-H727	0.641	0.426	0.394	0.251	0.745	0.611	0.526	0.317	0.545	0.258	0.117	0.0342	0.547	0.488	0.402	0.177	0.681	0.453	0.096	0.0428
NCI-H838	0.331	0.407	0.378	0.286	1.07	0.854	0.66	0.419	1.13	0.892	0.967	0.706	0.536	0.508	0.455	0.152	0.833	0.745	0.691	0.414

Cell Line	relative viability (Elesclomol + OSI-027; first compound 0.003162 µM)	relative viability (Elesclomol + OSI-027; first compound 0.01 µM)	relative viability (Elesclomol + OSI-027; first compound 0.03162 µM)	relative viability (Elesclomol + OSI-027; first compound 0.1 µM)	relative viability (Elesclomol + Foretinib; first compound 0.003162 µM)	relative viability (Elesclomol + Foretinib; first compound 0.01 µM)	relative viability (Elesclomol + Foretinib; first compound 0.03162 µM)	relative viability (Elesclomol + Foretinib; first compound 0.1 µM)	relative viability (Elesclomol + Alpelisib; first compound 0.003162 µM)	relative viability (Elesclomol + Alpelisib; first compound 0.01 µM)	relative viability (Elesclomol + Alpelisib; first compound 0.03162 µM)	relative viability (Elesclomol + Alpelisib; first compound 0.1 µM)	relative viability (Elesclomol + Phenformin; first compound 0.003162 µM)	relative viability (Elesclomol + Phenformin; first compound 0.01 µM)	relative viability (Elesclomol + Phenformin; first compound 0.03162 µM)	relative viability (Elesclomol + Phenformin; first compound 0.1 µM)	relative viability (Elesclomol + Crizotinib; first compound 0.003162 µM)	relative viability (Elesclomol + Crizotinib; first compound 0.01 µM)	relative viability (Elesclomol + Crizotinib; first compound 0.03162 µM)	relative viability (Elesclomol + Crizotinib; first compound 0.1 µM)
NCI-H1355	0.448	0.266	0.27	0.186	0.951	0.894	0.514	0.207	0.832	0.636	0.466	0.16	0.464	0.409	0.391	0.312	1.02	1.02	0.701	0.203
NCI-H1437	0.71	0.568	0.406	0.363	1.11	0.79	0.609	0.464	0.886	0.61	0.341	0.283	0.292	0.252	0.246	0.217	0.769	0.457	0.504	0.329
NCI-H1651	0.523	0.527	0.259	0.102	0.727	0.436	0.0766	0.0932	0.762	0.435	0.235	0.0895	0.321	0.257	0.151	0.1	0.81	0.833	0.951	0.531
NCI-H1666	0.807	0.654	0.464	0.465	1.06	0.88	0.621	0.509	0.765	0.232	0.277	0.116	0.566	0.554	0.494	0.476	0.745	0.271	0.235	0.15
NCI-H1734	0.573	0.491	0.178	0.124	0.882	0.679	0.221	0.126	0.722	0.588	0.625	0.131	0.369	0.343	0.38	0.191	0.66	0.586	0.382	0.0924
NCI-H1755	0.756	0.457	0.66	0.419	0.935	0.887	0.922	0.474	0.931	0.9	0.909	0.24	0.624	0.466	0.605	0.57	0.849	0.827	0.692	0.222
NCI-H1915	0.616		0.587	0.357	1.05		1.08	0.793	1.05		1.05	0.879	0.37		0.38	0.371	0.888		0.895	0.759
NCI-H1944	0.454	0.306	0.389	0.299	0.93	0.868	0.838	0.358	0.887	0.736	0.881	0.825	0.216	0.169	0.212	0.201	1.07	1.06	1	1.01
NCI-H1975	0.863	0.455	0.392	0.0658	0.943	0.832	0.311	0.164	0.646	0.468	0.229	0.11	0.43	0.329	0.388	0.281	0.934	0.835	0.407	0.132
NCI-H1993	0.552	0.498	0.616	0.513	0.772	0.671	0.553	0.533	0.755	0.662	0.666	0.52	0.512	0.538	0.517	0.53	0.812	0.836	0.603	0.577
NCI-H2009	0.448	0.131	0.126	0.0949	1.2	0.97	0.207	0.171	1.21	0.885	0.458	0.14	0.344	0.239	0.243	0.107	1.06	0.644	0.137	0.109
NCI-H2023	0.351	0.128	0.0471	0.0389	0.67	0.565	0.0376	0.051	0.604	0.236	0.269	0.074	0.349	0.217	0.145	0.0642	0.44	0.248	0.0779	0.0736
NCI-H2085	0.919	0.727	0.476	0.268	1.09	0.658	0.462	0.271	0.895	0.621	0.555	0.286	0.676	0.588	0.512	0.305	0.881	0.495	0.339	0.226
NCI-H2087	0.422	0.283	0.357	0.225	0.936	0.767	0.577	0.299	1.2	0.701	0.526	0.566	0.376	0.343	0.284	0.181	0.814	0.531	0.495	0.457
NCI-H2126	0.826	0.637	0.455	0.246	1.19	0.943	0.435	0.201	0.719	0.713	0.717	0.739	0.562	0.526	0.538	0.46	1.02	1.05	1.03	1.02
NCI-H2170	0.793	0.577	0.739	0.583	1.02	1.03	0.977	0.764	0.808	0.722	0.708	0.403	0.39	0.402	0.376	0.341	1.26	0.956	1.17	0.653
